Patent US20050282910A1, “Methods of application of chemical compounds having therapeutic activities in treating cancers” (priority 2003, published 2005)
Converted amounts (≈) assume the structure as drawn. Where two headings read alike, the source gives them in different places.

Key:
[1] = tested on: human breast cancer MDR cell line MCF7/adr; settings: for IC50 (ng/ml) +Schisandrin A: anticancer agent in the presence of Schisandrin A (10 μg/ml); for IC50 (ng/ml) +Schisandrin A / IC50 (ng/ml) +Schisantherin A: 72 hours; for IC50 (ng/ml) +Schisantherin A: anticancer agent in the presence of Schisantherin A (10 μg/ml)
K562/adr = experiment: Reversal of drug resistance by ethanol extracts of Schisandra chinensis fruit, MTT cytotoxicity of anticancer agents; assay type: cell-based, human; settings: for IC50 (ng/ml) +ethanol extract: anticancer agent in the presence of ethanol extracts (50 μg/ml)
Protocol: Assays were carried out in triplicate against human MDR cancer cell lines K562/adr, KBv200, and MCF7/adr. […] Alternatively, flow cytometry assays using FACS Calibur equipped with software Cellquest 3.1f (Becton-Dickinson, Holbrook, N.J.) were applied to count the cell numbers in each sample.

[2] = tested on: human epidermoid carcinoma MDR cell line KBv200; experiment: cells; settings: KBv200, 72 h
[3] = tested on: human leukemia MDR cell line K562/adr; experiment: Reversal of P-glycoprotein-mediated drug resistance by Schisandrin A, Schisandrol A, Schisantherin A, MTT cytotoxicity of anticancer agents; assay type: cell-based; settings: for IC50: Homo sapiens; for IC50 (ng/ml) +Schisandrin A: anticancer agent in the presence of Schisandrin A (10 μg/ml); for IC50 (ng/ml) +Schisantherin A: anticancer agent in the presence of Schisantherin A (10 μg/ml)
Protocol: Assays were carried out in triplicate against human leukemia MDR cell line K562/adr, human breast cancer MDR cell line MCF7/adr, and human epidermoid carcinoma MDR cell line KBv200.

[4] = tested on: human breast cancer MDR cell line MCF7/adr; experiment: cells; settings: NCI/ADR-RES, 72 h
[5] = tested on: human epidermoid carcinoma MDR cell line KBv200; settings: for IC50 (ng/ml) +Schisandrin A: anticancer agent in the presence of Schisandrin A (10 μg/ml); for IC50 (ng/ml) +Schisandrin A / IC50 (ng/ml) +Schisantherin A: 72 hours; for IC50 (ng/ml) +Schisantherin A: anticancer agent in the presence of Schisantherin A (10 μg/ml)
MCF7/adr = experiment: Reversal of drug resistance by ethanol extracts of Schisandra chinensis fruit, MTT cytotoxicity of anticancer agents; settings: for IC50: Homo sapiens, NCI/ADR-RES, 72 h, read-out: IC50 (ng/ml) −ethanol extract; for IC50 (ng/ml) +ethanol extract: anticancer agent in the presence of ethanol extracts (50 μg/ml), 72 hours
KBv200 = experiment: as above; settings: Homo sapiens, KBv200, 72 h, read-out: IC50 (ng/ml) −ethanol extract
HL60/adr = experiment: Reversal of MRP1-mediated drug resistance, MTT cytotoxicity of anticancer agents; assay type: cell-based, human; settings: for IC50 (ng/ml) +Schisandrin B: anticancer agent in the presence of Schisandrin B (10 μg/ml); for IC50: Homo sapiens, HL60/ADR, 72 h; for drug sensitivity of HL60/adr toward the anticancer agents (in words): compound 10 μg/ml
Protocol: Assays were carried out in triplicate against MDR cancer cell HL60/adr. MTT assays as described previously (X.

MRP1 = target: T1, MRP1 (Homo sapiens, UniProt P33527); experiment: Daunorubicin accumulation in HL60/adr cells (MRP1-mediated drug efflux), flow cytometry; assay type: cell-based; settings: 2 μg/ml daunorubicin
T1 construct: human cancer cell line HL60/adr, an MDR cell line characterized by MRP1 overexpression; endogenous in cells; host or cells: HL60/adr (human MDR cancer cell line)
T1 sequence (P33527 whole entry): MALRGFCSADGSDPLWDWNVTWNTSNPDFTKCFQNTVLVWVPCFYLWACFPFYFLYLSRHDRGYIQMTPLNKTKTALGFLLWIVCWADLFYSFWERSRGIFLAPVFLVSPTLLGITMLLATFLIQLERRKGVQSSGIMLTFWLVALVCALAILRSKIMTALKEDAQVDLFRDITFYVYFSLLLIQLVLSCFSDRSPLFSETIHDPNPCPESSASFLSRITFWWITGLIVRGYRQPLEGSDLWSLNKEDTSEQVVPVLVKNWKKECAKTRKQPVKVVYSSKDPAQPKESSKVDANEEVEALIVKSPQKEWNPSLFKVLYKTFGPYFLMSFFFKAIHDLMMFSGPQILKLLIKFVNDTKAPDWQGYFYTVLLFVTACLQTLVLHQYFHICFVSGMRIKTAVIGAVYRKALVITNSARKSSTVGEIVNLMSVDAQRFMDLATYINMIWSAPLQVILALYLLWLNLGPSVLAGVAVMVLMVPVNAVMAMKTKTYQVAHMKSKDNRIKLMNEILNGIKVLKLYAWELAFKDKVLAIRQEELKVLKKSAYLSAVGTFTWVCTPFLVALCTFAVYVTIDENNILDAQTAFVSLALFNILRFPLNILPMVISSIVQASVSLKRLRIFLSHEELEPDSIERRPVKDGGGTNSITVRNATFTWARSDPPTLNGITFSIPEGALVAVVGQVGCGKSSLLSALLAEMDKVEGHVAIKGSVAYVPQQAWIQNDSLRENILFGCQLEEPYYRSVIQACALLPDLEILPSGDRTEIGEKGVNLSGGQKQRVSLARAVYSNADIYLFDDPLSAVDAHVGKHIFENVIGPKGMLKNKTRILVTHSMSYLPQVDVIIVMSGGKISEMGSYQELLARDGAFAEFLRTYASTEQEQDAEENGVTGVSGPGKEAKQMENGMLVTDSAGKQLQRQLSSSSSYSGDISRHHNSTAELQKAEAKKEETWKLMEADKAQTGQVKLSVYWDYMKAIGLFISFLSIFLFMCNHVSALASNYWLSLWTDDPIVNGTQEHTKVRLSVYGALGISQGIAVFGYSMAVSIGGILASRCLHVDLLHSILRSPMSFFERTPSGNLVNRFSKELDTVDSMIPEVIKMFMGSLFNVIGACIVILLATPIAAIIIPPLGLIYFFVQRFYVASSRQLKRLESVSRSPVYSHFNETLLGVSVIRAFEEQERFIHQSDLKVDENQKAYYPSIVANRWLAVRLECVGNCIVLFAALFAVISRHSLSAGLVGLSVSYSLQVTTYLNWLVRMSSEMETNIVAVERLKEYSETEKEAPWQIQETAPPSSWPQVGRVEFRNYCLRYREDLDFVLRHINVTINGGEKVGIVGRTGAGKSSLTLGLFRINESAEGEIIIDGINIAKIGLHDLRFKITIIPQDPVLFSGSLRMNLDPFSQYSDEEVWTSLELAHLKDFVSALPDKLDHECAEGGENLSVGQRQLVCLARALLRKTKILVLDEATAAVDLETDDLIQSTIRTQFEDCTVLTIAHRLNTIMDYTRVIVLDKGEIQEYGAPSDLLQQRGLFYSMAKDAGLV
Excerpt: MRP1 functions as a drug pump that unilaterally pumps the anticancer agents out of MDR cancer cells. Inhibition of MRP1 results in an increase of intracellular drug concentration within cancer cells.

SMMC7721 = experiment: Enhancement of anticancer agent-induced apoptosis and necrosis, Anexin V-FITC/PI; assay type: cell-based, human; settings: 48 hours; for Apoptotic(%) / Necrotic(%): doxorubicin 0.5 μg/ml
Protocol: (§1) To illustrate the activities of Schisandrin B or its analogs enhancing the apoptosis of cancer cells induced by an anticancer agent according to the present disclosure, human cancer cell line SMMC7721, a non-drug-resistant hepatic cancer cell line, and MCF7, a non-drug-resistant breast cancer cell line, were selected for use. Assays were carried out in triplicates against SMMC7721 or MCF7. […] Cells were collected and the apoptotic cells and necrotic cell percentages were determined using Anexin V-FITC/PI kit (Sigma, St. Louis, Mo., USA) according to manufacturer's instructions. Alternatively, the apoptotic and necrotic cell percentages were measured using DNA Plus kit (Becton-Dickinson, USA) according to the manufacturer's instructions.

MCF7 = experiment: as above; assay type: cell-based, human; settings: 48 hours; for Apoptotic + necrotic (%): MCF7, doxorubicin 0.5 μg/ml, Schisandrin B 20 μg/ml
Protocol: as §1

[6] = read-out: IC50 (ng/ml) −Schisandrin A
[7] = read-out: IC50 (ng/ml) −Schisantherin A
[8] = HL60/adr, by Schisandrin B (10 μg/ml)
[9] = HL60/adr, anticancer agent in the absence of Schisandrin B, 72 hours, read-out: IC50 (ng/ml) −Schisandrin B
[10] = SMMC7721, Schisandrin B 20 μg/ml
[11] = Schisandrin B 20 μg/ml with doxorubicin 0.5 μg/ml

## COc1cccc2c1C(=O)c1c(O)c3c(c(O)c1C2=O)C[C@@](O)(C(C)=O)C[C@@H]3O[C@H]1C[C@H](N)[C@H](O)[C@H](C)O1 [Daunorubicin]
[1]
  IC50 (ng/ml) +Schisandrin A: 245 ± 46 ng/mL
  IC50 (ng/ml) +Schisantherin A: 58.8 ± 21 ng/mL
K562/adr; 72 hours
  IC50 (ng/ml) +ethanol extract: 150 ± 19 ng/mL
[2]; [6]
  IC50: 26.9 ± 8.1 ng/mL (≈ 0.051 µM)
[2]; [7]
  IC50: 26.9 ± 4.3 ng/mL (≈ 0.051 µM)
[3]; K562/adr, anticancer agent in the absence of Schisandrin A, 72 hours, read-out: IC50 (ng/ml) −Schisandrin A
  IC50: 4780 ± 1380 ng/mL
[3]; K562/adr, anticancer agent in the absence of Schisantherin A, 72 hours, read-out: IC50 (ng/ml) −Schisantherin A
  IC50: 1300 ± 293 ng/mL
[3]; K562/adr, 72 hours
  IC50 (ng/ml) +Schisandrin A: 67.2 ± 21.3 ng/mL
  IC50 (ng/ml) +Schisantherin A: 71 ± 22 ng/mL
[4]; [6]
  IC50: 2560 ± 413 ng/mL (≈ 4.85 µM)
[4]; [7]
  IC50: 812 ± 193 ng/mL (≈ 1.54 µM)
[5]
  IC50 (ng/ml) +Schisandrin A: 2.47 ± 0.9 ng/mL
  IC50 (ng/ml) +Schisantherin A: 3.4 ± 1.3 ng/mL
MCF7/adr
  IC50: 320 ± 71 ng/mL
MCF7/adr; MCF7/adr
  IC50 (ng/ml) +ethanol extract: 31 ± 10 ng/mL
KBv200
  IC50: 20 ± 8 ng/mL

## O=C1c2c(O)ccc(O)c2C(=O)c2c(NCCNCCO)ccc(NCCNCCO)c21 [Mitoxantrone]
HL60/adr; HL60/adr, 72 hours
  IC50 (ng/ml) +Schisandrin B: <1 ng/mL
HL60/adr; [8]
  RF (reversal folds of drug resistance): >68
HL60/adr; [9]
  IC50: 68 ng/mL

## COc1cc2c(c(OC)c1OC)-c1c(cc(OC)c(OC)c1OC)C[C@H](C)[C@H](C)C2 [Schisandrin A]
MRP1; 60 minutes, FIG. 7
  daunorubicin accumulation within HL60/adr cells (in words): increased with the increasing concentration
[3]; FIG. 3
  sensitivity of MDR cancer cell K562/adr to daunorubicin (in words): increase the sensitivity
[3]; Schisandrin A 1 μg/ml, FIG. 3
  increase of sensitivity of K562/adr to daunorubicin: about 8 folds
[3]; Schisandrin A 10 μg/ml, FIG. 3
  increase of sensitivity of K562/adr to daunorubicin: ~71 folds
[3]; Schisandrin A 20 μg/ml, FIG. 3
  increase of sensitivity of K562/adr to daunorubicin: ~100 folds
HL60/adr
  drug sensitivity of HL60/adr toward the anticancer agents (in words): enhanced

## COc1cc2c(c(OC)c1OC)-c1c(cc3c(c1OC)OCO3)C[C@@H](C)[C@@H](C)C2 [Schisandrin B]
SMMC7721; [10]
  Apoptotic(%): 2.4 ± 2.1%
  Necrotic(%): 1.5 ± 0.9%
SMMC7721; SMMC7721, vincristine 0.5 μg/ml, Schisandrin B 20 μg/ml
  Apoptotic + necrotic (%): 2.6 ± 0.4%
SMMC7721; [11]
  apoptosis and necrosis of SMMC7721 cells induced by doxorubicin (in words): significantly enhanced
SMMC7721; Schisandrin B 20 μg/ml with vincristine 0.5 μg/ml
  apoptosis and necrosis of SMMC7721 induced by vincristine (in words): significantly enhanced
MCF7
  Apoptotic + necrotic (%): 1.9 ± 0.1%
MCF7; [11]
  apoptosis and necrosis of MCF7 induced by doxorubicin (in words): significantly enhanced
MRP1; 90 minutes, FIG. 6
  daunorubicin accumulation within HL60/adr cells (in words): increased proportionately with increasing concentration
MRP1; Schisandrin B 20 μg/ml, 90 minutes, FIG. 6
  daunorubicin accumulation in HL60/adr cells versus absence of Schisandrin B: 4 folds
HL60/adr; HL60/adr, Schisandrin B 10 μg/ml
  RF (reversal folds of vincristine resistance): ~10.5
HL60/adr; HL60/adr, Schisandrin B 20 μg/ml
  RF (reversal folds of vincristine resistance): >42
HL60/adr
  drug sensitivity of HL60/adr toward the anticancer agents (in words): enhanced

## CC(=O)O[C@H]1C(=O)[C@@]2(C)[C@H]([C@H](OC(=O)c3ccccc3)[C@]3(O)C[C@H](OC(=O)[C@H](O)[C@@H](NC(=O)c4ccccc4)c4ccccc4)C(C)=C1C3(C)C)[C@]1(OC(C)=O)CO[C@@H]1C[C@@H]2O [Taxol]
[1]
  IC50 (ng/ml) +Schisandrin A: 6.1 ± 1.9 ng/mL
  IC50 (ng/ml) +Schisantherin A: 6.3 ± 3.1 ng/mL
[1]; by Schisandrin A (10 μg/ml)
  RF (reversal folds of drug resistance): 6.6
[1]; by Schisantherin A (10 μg/ml)
  RF (reversal folds of drug resistance): 6.4
K562/adr; Homo sapiens, anticancer agent in the absence of ethanol extracts, 72 hours, read-out: IC50 (ng/ml) −ethanol extract
  IC50: 110 ± 20 ng/mL
K562/adr; 72 hours
  IC50 (ng/ml) +ethanol extract: 41 ± 24 ng/mL
K562/adr; by ethanol extracts (50 μg/ml)
  RF (reversal folds of drug resistance): 2.7
[2]; [6]
  IC50: 20.2 ± 2.8 ng/mL (≈ 0.0237 µM)
[2]; [7]
  IC50: 20.2 ± 3.8 ng/mL (≈ 0.0237 µM)
[3]; K562/Adr, 72 h, K562/adr, anticancer agent in the absence of Schisandrin A, 72 hours, read-out: IC50 (ng/ml) −Schisandrin A
  IC50: 38 ± 11 ng/mL
[3]; K562/Adr, 72 h, K562/adr, anticancer agent in the absence of Schisantherin A, 72 hours, read-out: IC50 (ng/ml) −Schisantherin A
  IC50: 38 ± 12 ng/mL
[3]; K562/adr, 72 hours
  IC50 (ng/ml) +Schisandrin A: 6.4 ± 3.2 ng/mL
  IC50 (ng/ml) +Schisantherin A: 1.1 ± 1.0 ng/mL
[3]; K562/adr, by Schisandrin A (10 μg/ml)
  RF (reversal folds of drug resistance): 5.9
[3]; K562/adr, by Schisantherin A (10 μg/ml)
  RF (reversal folds of drug resistance): 34.5
[4]; [6]
  IC50: 40.5 ± 11 ng/mL (≈ 0.0474 µM)
[4]; [7]
  IC50: 40.6 ± 20.3 ng/mL (≈ 0.0475 µM)
HL60/adr; HL60/adr, anticancer agent in the presence of Schisandrin A (10 μg/ml), 72 hours
  IC50 (ng/ml) +Schisandrin A: 4.1 ± 1.4 ng/mL
HL60/adr; HL60/adr, 72 hours
  IC50 (ng/ml) +Schisandrin B: <1 ng/mL
HL60/adr; HL60/adr, anticancer agent in the presence of Schisantherin A (10 μg/ml), 72 hours
  IC50 (ng/ml) +Schisantherin A: 4.3 ± 1.4 ng/mL
HL60/adr; HL60/adr, by Schisandrin A (10 μg/ml)
  RF (reversal folds of drug resistance): 7.8
HL60/adr; [8]
  RF (reversal folds of drug resistance): >3
HL60/adr; HL60/adr, by Schisantherin A (10 μg/ml)
  RF (reversal folds of drug resistance): 7.4
HL60/adr; HL60/adr, anticancer agent in the absence of Schisandrin A, 72 hours, read-out: IC50 (ng/ml) −Schisandrin A
  IC50: 32 ± 9 ng/mL
HL60/adr; [9]
  IC50: 3 ng/mL
HL60/adr; HL60/adr, anticancer agent in the absence of Schisantherin A, 72 hours, read-out: IC50 (ng/ml) −Schisantherin A
  IC50: 32 ± 9 ng/mL
[5]
  IC50 (ng/ml) +Schisandrin A: 1.91 ± 1.2 ng/mL
  IC50 (ng/ml) +Schisantherin A: 2.4 ± 0.7 ng/mL
[5]; by Schisandrin A (10 μg/ml)
  RF (reversal folds of drug resistance): 10.6
[5]; by Schisantherin A (10 μg/ml)
  RF (reversal folds of drug resistance): 8.4
MCF7/adr
  IC50: 73 ± 27 ng/mL
MCF7/adr; MCF7/adr
  IC50 (ng/ml) +ethanol extract: 25 ± 12 ng/mL
MCF7/adr; MCF7/adr, by ethanol extracts (50 μg/ml)
  RF (reversal folds of drug resistance): 2.9

## COc1cc([C@@H]2c3cc4c(cc3[C@@H](O[C@@H]3O[C@@H]5CO[C@@H](C)O[C@H]5[C@H](O)[C@H]3O)[C@H]3COC(=O)[C@H]23)OCO4)cc(OC)c1O [VP-16]
HL60/adr; HL60/adr, anticancer agent in the absence of Schisandrin B, 72 hours
  IC50 (ng/ml) −Schisandrin B: >10000 ng/mL
HL60/adr; HL60/adr, 72 hours
  IC50 (ng/ml) +Schisandrin B: 1490 ± 213 ng/mL
HL60/adr; [8]
  RF (reversal folds of drug resistance): >6.7

## COc1cccc2c1C(=O)c1c(O)c3c(c(O)c1C2=O)C[C@@](O)(C(=O)CO)C[C@@H]3O[C@H]1C[C@H](N)[C@H](O)[C@H](C)O1 [doxorubicin]
SMMC7721; [10]
  Apoptotic(%): 5.2 ± 2.6%
  Necrotic(%): 16.5 ± 4.3%
MCF7
  Apoptotic + necrotic (%): 7.2 ± 0.8%
[3]; K562/Adr, read-out: IC50 of doxorubicin toward K562/adr, in the absence of Schisandrol A
  IC50: 875 ± 248 ng/mL
[3]; K562/Adr, read-out: IC50 of doxorubicin toward K562/adr, in the presence of Schisandrol A (10 μg/ml)
  IC50: 168 ± 43 ng/mL
